Experimental data as given in ChEMBL document CHEMBL1154289, “Structure based design of novel irreversible FAAH inhibitors” (Bioorg Med Chem Lett, 2009).
Active and inactive are the calls of the source. No cut-off for these calls is given here.

Assays:
[1] = target: T1, Fatty-acid amide hydrolase 1 (Homo sapiens) (UniProt O00519); test: Inhibition of human FAAH assessed as ratio of Kinact to Ki
T1 sequence (whole entry): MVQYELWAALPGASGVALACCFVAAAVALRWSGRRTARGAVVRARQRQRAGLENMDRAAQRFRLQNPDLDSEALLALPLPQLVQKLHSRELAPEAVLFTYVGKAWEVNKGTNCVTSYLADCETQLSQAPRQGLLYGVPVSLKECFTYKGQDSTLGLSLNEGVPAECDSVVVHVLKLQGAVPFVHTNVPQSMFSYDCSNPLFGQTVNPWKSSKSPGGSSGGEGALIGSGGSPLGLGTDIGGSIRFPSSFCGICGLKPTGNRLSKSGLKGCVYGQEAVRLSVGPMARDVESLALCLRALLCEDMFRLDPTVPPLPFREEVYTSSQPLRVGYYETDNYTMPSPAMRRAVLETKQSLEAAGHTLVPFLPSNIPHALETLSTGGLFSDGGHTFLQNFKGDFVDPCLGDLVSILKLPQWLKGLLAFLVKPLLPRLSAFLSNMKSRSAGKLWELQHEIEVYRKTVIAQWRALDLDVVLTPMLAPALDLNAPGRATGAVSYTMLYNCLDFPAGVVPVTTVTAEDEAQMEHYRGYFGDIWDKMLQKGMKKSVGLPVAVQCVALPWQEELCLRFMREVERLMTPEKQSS

[2] = target: T2, Fatty-acid amide hydrolase 1 (Rattus norvegicus) (UniProt P97612); test: Inhibition of rat FAAH assessed as ratio of Kinact to Ki
T2 sequence (whole entry): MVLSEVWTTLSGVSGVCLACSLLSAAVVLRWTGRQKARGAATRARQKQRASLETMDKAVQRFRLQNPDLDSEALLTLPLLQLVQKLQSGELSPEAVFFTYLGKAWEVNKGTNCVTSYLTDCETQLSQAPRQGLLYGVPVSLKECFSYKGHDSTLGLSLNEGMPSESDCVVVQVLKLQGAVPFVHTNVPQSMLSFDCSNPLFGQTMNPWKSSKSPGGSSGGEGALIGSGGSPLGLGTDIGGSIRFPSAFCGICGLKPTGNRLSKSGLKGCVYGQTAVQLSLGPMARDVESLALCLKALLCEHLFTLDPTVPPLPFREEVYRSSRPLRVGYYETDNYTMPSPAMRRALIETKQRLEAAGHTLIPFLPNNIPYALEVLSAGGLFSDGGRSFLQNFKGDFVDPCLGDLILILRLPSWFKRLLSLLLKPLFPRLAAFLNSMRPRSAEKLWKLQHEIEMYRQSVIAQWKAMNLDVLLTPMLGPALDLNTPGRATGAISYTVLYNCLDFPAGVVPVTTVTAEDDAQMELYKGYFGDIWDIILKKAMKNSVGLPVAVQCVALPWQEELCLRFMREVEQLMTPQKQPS

[3] = Bioavailability in rat; type: ADME, organism-based; settings: in vivo

SMILES	Ratio [1]	Ratio [2]	bioavailability [3]
O=C(Nc1cccnn1)N1CC(CCCc2cccc(Oc3ccc(C(F)(F)F)cn3)c2)C1	3030 M⁻¹ s⁻¹	1840 M⁻¹ s⁻¹	
O=C(Nc1cccnc1)N1CC(/C=C\Cc2cccc(Oc3ccc(C(F)(F)F)cn3)c2)C1	9000 M⁻¹ s⁻¹	5390 M⁻¹ s⁻¹	73%
O=C(Nc1cccnc1)N1CC(C#CCc2cccc(Oc3ccc(C(F)(F)F)cn3)c2)C1	861 M⁻¹ s⁻¹	465 M⁻¹ s⁻¹	
Cc1noc(NC(=O)N2CC(CCCc3cccc(Oc4ccc(C(F)(F)F)cn4)c3)C2)c1C	1450 M⁻¹ s⁻¹	15300 M⁻¹ s⁻¹	
O=C(Nc1cccnc1)N1CC(/C=C/Cc2cccc(Oc3ccc(C(F)(F)F)cn3)c2)C1	9340 M⁻¹ s⁻¹	2380 M⁻¹ s⁻¹	93%

Other lines, results leading:

Ratio [1]	Ratio [2]	bioavailability [3]	SMILES
782 M⁻¹ s⁻¹	inactive		O=C(Nc1cccnc1)N1CC(C/C=C\c2cccc(Oc3ccc(C(F)(F)F)cn3)c2)C1
621 M⁻¹ s⁻¹	1310 M⁻¹ s⁻¹		O=C(Nc1cccnc1)N1CC(=CCCc2cccc(Oc3ccc(C(F)(F)F)cn3)c2)C1
1090 M⁻¹ s⁻¹	688 M⁻¹ s⁻¹		O=C(Nc1cccnc1)N1CC(CCCc2cccc(Oc3ccc(C(F)(F)F)cn3)c2)C1
881 M⁻¹ s⁻¹	5160 M⁻¹ s⁻¹		O=C(Nc1cncc2[nH]ccc12)N1CC(CCCc2cccc(Oc3ccc(C(F)(F)F)cn3)c2)C1
2100 M⁻¹ s⁻¹	2310 M⁻¹ s⁻¹		O=C(Nc1cccnc1)N1CC(C/C=C/c2cccc(Oc3ccc(C(F)(F)F)cn3)c2)C1
